This note sets out measurements from patent US20180028480A1, “METHODS OF REDUCING OR PREVENTING OXIDATIVE MODIFICATION OF MEMBRANE POLYUNSATURATED FATTY ACIDS” (Amarin Pharmaceuticals Ireland Limited, priority 2015, published 2018).

The test system of experiment [1] is lipid vesicles enriched with PUFAs and cholesterol. Description: Glucose-induced membrane lipid peroxidation (LOOH) in DLPC/cholesterol multilamellar vesicles (Example 4). To be noted: for effect on LOOH formation / lipid peroxidation: 72- and 96-hour time points, 1:30 drug-to-phospholipid mole ratio (FIG. 3). In kind it is biochemical. The protocol: Vitamin E (α-tocopherol) was also purchased from Sigma-Aldrich and prepared in ethanol at 1.0 mM (ε32 3.06×10^4 M^−1 cm^−1 at 294 nm) just prior to experimental use. […] All test compounds were further diluted in ethanol or aqueous buffer as needed. Glucose was prepared in saline buffer (0.5 mM HEPES, 154 mM NaCl, pH 7.3) at 11.0 mM (200 mg/dL). CHOD-iodide color reagent (stock) was prepared, with slight modification, as described by from El-Saadani et al. (J. […] Prior to experimental use, the CHOD reagent was activated by adding 24 μM ethylenediaminetetraacetic acid (EDTA), 20 μM butylated hydroxytoluene (BHT), and 0.2% Triton X-100. Multilamellar vesicles (MLVs) were prepared as binary mixtures of DLPC (1.0 or 2.5 mg total phospholipid per sample) and cholesterol at a fixed cholesterol-to-phospholipid (C/P) mole ratio of 0.6:1. Component lipids (in chloroform) were transferred to 13×100 mm borosilicate culture tubes and combined with vehicle (ethanol) or an equal volume of fatty acid, vitamin E, or ATM stock solutions, each adjusted to achieve desired treatment concentrations. Samples were shell-dried under nitrogen gas and placed under vacuum for 1 h to remove residual solvent. […] Lipid suspensions were then vortexed for 3 min at ambient temperature to form MLVs. All MLV samples were subjected to time-dependent autoxidation by incubating at 37° C. in an uncovered, shaking water bath. This method allows lipid peroxidation to occur gradually without requiring the use of exogenous initiators. Small aliquots (5-100 μL) of each sample were removed, immediately following MLV preparation (0 hour) and after exposing samples to oxidative conditions for 72 or 96 hour, and combined with 1.0 mL of activated CHOD-iodide color reagent. Aliquot volume was reduced with each successive time point to ensure that spectrophotometric readings were within the optimal adsorption range. Test samples were covered and incubated in darkness at room temperature for at least 4 hr. Sample absorbances were then measured against a CHOD blank at 365 nm using a Beckman DU-640 spectrophotometer. The CHOD colorimetric assay is based on the oxidation of iodide (I^−) by lipid hydroperoxide (LOOH) to form triiodide (I3^−), the quantity of which is directly proportional to the amount of LOOH present in the lipid sample. The molar absorptivity (c) of I3^− is 2.46×10^4 M^−1 cm^−1 at 365 nm. […] The concentration of glucose selected was consistent with previous experimental studies of hyperglycemia under controlled laboratory conditions or observed in well-defined animal models of Type II diabetes following a glucose challenge. […] Values in FIG. 1 are mean±S.D. (N=6). […]

Experiment [2] has as its system unfractionated LDL. Description: Copper-induced oxidation of unfractionated LDL, TBARS (Example 6). To be noted: 1.0 μM to 10.0 μM. In kind it is biochemical, human. The protocol: All test compounds were further diluted in ethanol or aqueous buffer as needed. Venous blood was collected from healthy volunteers into vacutainer tubes containing sodium EDTA. […] Plasma and lipoprotein fractions were maintained at 4° C. and protected from excessive exposure to light. Prior to oxidation experiments, EDTA was removed from the lipoprotein fraction using PD-10 desalting columns (GE Healthcare, Piscataway N.J.). After equilibration of the column with phosphate buffered saline (PBS), 2.5 mL of the lipoprotein fraction was loaded on the column and the flow-through discarded. The lipoprotein was then eluted with 3 mL of PBS. The LDL fractions were further diluted with PBS to obtain a 100 μg/mL apoB100 concentration. […] Sample TBARS concentrations were determined spectrophotometrically by measuring sample absorbances against a standard curve derived from the hydrolysis of 1,1,3,3-tetramethoxypropane. […] Differences between groups were analyzed using the two-tailed, Student's t-test (for comparisons between only two groups) or ANOVA followed by Dunnett or Student-Newman-Keuls multiple comparisons post-hoc analysis (for comparisons between three or more groups).

With `CC/C=C\C/C=C\C/C=C\C/C=C\C/C=C\CCCC(=O)O` [EPA, cis-5,8,11,14,17-Eicosapentaenoic acid], in experiment [1], the “effect on LOOH formation / lipid peroxidation” value is “significantly inhibited LOOH formation”. The “antioxidant effect (LOOH formation), separate treatments” value in experiment [1] (each at 1.0 μM, glucose 200 mg/dL, 96 hours) was “separate and potent antioxidant effects”. Besides, in experiment [2], the LDL oxidation result was “generally inhibit LDL oxidation”.

Turning to `Cc1c(C)c2c(c(C)c1O)CC[C@@](C)(CCC[C@H](C)CCC[C@H](C)CCCC(C)C)O2` [vitamin E, α-tocopherol, reference compound], in experiment [1], the “effect on LOOH formation / lipid peroxidation” value is “no significant effect on lipid peroxidation”. Further, the LDL oxidation result in experiment [2] is given as “did not inhibit LDL oxidation at any concentration”.
